# Reference: patent publication US4370331A, “L-Glaucine containing composition for cough relief” (Karl O. Helm Aktiengesellschaft, priority 1977, dated 1983)
# Values joined by “and” are separate entries in the source; they are usually repeats but may differ in a detail not shown here. Equal values may be shown once. Where a name gives a salt, the structure may show the parent alone. Read-outs that look alike come from different tables or passages of the source.
# How the values were obtained:
# cough pulses [1] = assay: Oral citric acid aerosol cough test in guinea pigs, time course 1-24 h, Comparative test 6; format: in vivo; details: for Cough pulses during 8 minutes, percent of control value, after 1 h / Cough pulses during 8 minutes, percent of control value, after 3 h / Cough pulses during 8 minutes, percent of control value, after 5 h / Cough pulses during 8 minutes, percent of control value, after 24 h: codeine phosphate 75, d,l-glaucine hydrobromide 150, hydrochloride 135, embonate 378 mg/kg
# Experimental: In a further comparative test, 40 female guinea pigs with body weights between 230 and 500 g were divided into 4 groups and each animal was again subjected to the action of a 20% citric acid aerosol for 8 minutes. From the control values thus obtained the average control value for each group was calculated. Each animal of each group was then given, by means of a throat probe, either 75 mg/kg of codeine phosphate, or 135 mg/kg of d,l-glaucine hydrochloride, or 150 mg/kg of d,1-glaucine hydrobromide, or 378 mg/kg of d,l-glaucine embonate. These doses are the equimolar quantities, based on glaucine. After a period of 1, or 3, or 5, or 24 hours each animal was again subjected for 8 minutes to the action of the citric acid aerosol, and the number of cough pulses during this period was recorded. The values thus obtained were compared with the control values and the percent deviation of the average measured value for each group, from the average control value, was calculated.
# cough pulses [2] = assay: Citric acid aerosol cough test in guinea pigs, subcutaneous, 30 min (method of Friebel and Reichle), Comparative test 1; format: in vivo; details: s.c.; for ED50: Cavia porcellus, sc, 0.5 h, 30 min after administering, 20% citric acid aerosol, 8 min
# Experimental: In order to compare the anti-cough effectiveness of codeine phosphate with the effectiveness of the different isomers of glaucine hydrobromide, the testing method of Friebel and Reichle was used. 60 guinea pigs with weights between 200 and 300 g were divided up into ten groups of different sizes. Before administering the active substance, each animal was subjected, on the same day as the day of test with the active substance, for a period of 8 minutes to an aerosol of 20% citric acid, the animal being confined in a chamber at constant air pressure. During this control test the number of cough pulses was counted with the help of a pressure transmitter. From these measurements an average control value for each group was calculated. After this preliminary control test, there was given subcutaneously to each animal of each group a suspension of the active substance in 1% sodium carboxymethyl cellulose. After 30 minutes each animal was again exposed in the test chamber for 8 minutes to the aerosol of 20% citric acid and the number of cough pressure pulses recorded. The different active substances were administered in increasing doses ranging from 3 mg/kg to 100 mg/kg of body weight. Altogether eight different doses were given. The results were expressed as percent deviation from the average control value for the group on the same day, the deviation being entered in a diagram against the logarithm of the dose administered. From the resulting effectiveness curve, based on the logarithm of the dose, the coefficient of correlation and the ED50 were calculated for each active substance, by the regression analysis method of Downie and Heath (1965). The values obtained for codeine phosphate, for d-glaucine hydrobromide, for d,l-glaucine hydrobromide and for l-glaucine hydrobromide thirty minutes after administering the active substance are summarized in Table I.
# [3] = test system: isolated guinea pig intestines (contractions induced by electric voltages); assay: Suppression of electrically induced contractions in isolated guinea pig intestines, Comparative test 4; parameters: electrically induced contractions (Table III): unit not given here
# Experimental: In a further series of tests the effects of different doses of codeine phosphate in suppressing contractions induced in isolated guinea pig intestines by electric voltages were tested. For this purpose one electrode was immersed in the solution surrounding the intestinal preparation. The second electrode was connected to the preparation at the attachment point.
# coughing centre = assay: Coughing reflex by electrical stimulation of upper laryngeal nerves of anaesthetized cats (method of Domenjoz), Comparative test 5; format: in vivo; details: intravenous; for minimal effective dose: Felis catus, read-out: MED (minimal effective dose completely suppressing the coughing reflex); for minimal effective dose / Duration of cough suppression: anaesthetized cats; for Duration of cough suppression: at MED
# Experimental: In a series of tests conducted by the method of Domenjoz, the effects of the different active substances on the coughing centre was examined by electrical stimulation of the upper laryngeal nerves of anaesthetized cats. Electrical stimulation of the nerve produces a coughing reflex and the intention is to reduce this by intravenous injection of the active substance. The minimal effective dose MED is determined by increasing the dose from 0.1 mg/kg of body weight up to 0.3 mg/kg, 1.0 mg/kg, 3.0 mg/kg and 6.0 mg/kg, until the dose is sufficient for completely suppressing the coughing reflex.
# In these tests each animal was given, on the one hand, codeine and, on the other hand, at sufficient time intervals also glaucine, so that the ratio of the minimal effective doses of glaucine and codeine can be deduced.
# cough pulses [4] = assay: Oral citric acid aerosol cough test in guinea pigs, 1 h (equivalent effective doses), Comparative test 6; format: in vivo; details: for Cough pulses percent of control value: 20% citric acid aerosol 8 min
# [5] = Toxicity (LD50) in mice by the Wilcox method, Comparative test 7; format: in vivo; details: mouse, in vivo
# Experimental: (§1) The toxicity thresholds of codeine phosphate, of d-glaucine hydrobromide and of d,l-glaucine hydrobromide were determined in mice by the Wilcox method. […] The toxicities of codeine phosphate and d,l-glaucine hydrobromide are about equal.
# mice = assay: as above; format: in vivo; details: hydrobromide
# Experimental: as §1
# [6] = test system: isolated guinea pig intestines (contractions induced by electric voltages); assay: Suppression of electrically induced contractions in isolated guinea pig intestines, Comparative test 4; details: isolated guinea pig intestine; codeine: increased doses; d-glaucine: higher concentrations than 4×10^-5; d,l-glaucine: 4×10^-5 to 6×10^-5
# [7] = test system: smooth muscles of isolated guinea pigs intestine; assay: Effect on smooth muscles of isolated guinea pig intestine in a bath, Comparative test 3; details: for spontaneous activity and tone, in words: molar concentrations between 1×10^-5 and 8×10^-5
# Experimental: Experiments were conducted in vitro to determine the effects of different active substances on the smooth muscles of isolated guinea pigs intestine samples suspended in a bath. After adding to the bath different doses of the active substances, the contractive force of the muscle material was recorded.
# intestinal motility = assay: Intestinal motility / evacuation action of stomach-intestinal tract of mice (carbon suspension), Comparative test 2; format: in vivo; details: s.c., 2 h, control 74.3%, * = significantly different from control (p < 0.05)
# Excerpt: One of the most unpleasant side effects of anti-cough medicine containing codeine is constipation and the occurrence of intestinal spasms. A model test for determining the effects of anti-cough active substances on intestinal motility and on the evacuation action of the stomach-intestinaltract of mice was therefore made. After subcutaneous injection of the active substance, each animal was given, through a throat probe, a 10% suspension of carbon in a 5% aqueous slurry of gum arabic. Two hours later the intestine was sectioned and the distance of stomach coecum measured, and also the distance travelled by the carbon, which was expressed as percent of intestine length.
# The effects of codeine phosphate, of d-glaucine hydrobromide and of l-glaucine hydrobromide on intestinal motility were determined at different doses. For each dose the average value was calculated for a sufficient number of animals.
# [8] = po, peroral, read-out: LD50 peroral
# [9] = sc, subcutaneous, read-out: LD50 subcutaneous
smiles,measurement,setting,value
"COc1cc2c(cc1OC)-c1c(OC)c(OC)cc3c1C(C2)N(C)CC3 (racemic) [d,l-glaucine embonate]","Cough pulses during 8 minutes, percent of control value, after 1 h",cough pulses [1],80%
same,"Cough pulses during 8 minutes, percent of control value, after 3 h",cough pulses [1],51%
same,"Cough pulses during 8 minutes, percent of control value, after 5 h",cough pulses [1],57%
same,"Cough pulses during 8 minutes, percent of control value, after 24 h",cough pulses [1],81%
same,"duration of effect, in words","cough pulses [1]; guinea pigs, 378 mg/kg",considerably longer-lasting effect without any delay in the beginning of the effect
"COc1cc2c(cc1OC)-c1c(OC)c(OC)cc3c1C(C2)N(C)CC3 (racemic) [d,l-glaucine hydrobromide]",ED50,cough pulses [2],27.2 mg/kg
same,"ED50 value, comparison in words",cough pulses [2]; 30 min,even lower ED50 value than l-glaucine hydrobromide
same,"suppression of electrically induced spasms, in words",[3]; 4×10^-5 to 6×10^-5,suppress the electrically induced spasms practically completely
same,electrically induced contractions (Table III),[3]; molar concentration 1 × 10^-5,63
same,electrically induced contractions (Table III),[3]; molar concentration 2 × 10^-5,48
same,electrically induced contractions (Table III),[3]; molar concentration 4 × 10^-5,8
same,electrically induced contractions (Table III),[3]; molar concentration 4 × 10^-6,81
same,electrically induced contractions (Table III),[3]; molar concentration 8 × 10^-6,63
same,minimal effective dose,coughing centre,1 mg/kg
same,Duration of cough suppression,coughing centre,44 to 62 min
same,"duration of the effect, in words",coughing centre; at minimal dose,"considerably greater for the d,l-glaucine hydrobromide than for the d-glaucine hydrobromide"
same,Cough pulses percent of control value,cough pulses [4]; 100 mg/kg,30%
same,Cough pulses percent of control value,cough pulses [4]; 200 mg/kg,44%
same,"dose having about the same effect (codeine phosphate vs d,l-glaucine hydrobromide)",cough pulses [4]; guinea pigs,~150 mg per kg of body weight
same,"Cough pulses during 8 minutes, percent of control value, after 1 h",cough pulses [1]; hydrobromide,90%
same,"Cough pulses during 8 minutes, percent of control value, after 3 h",cough pulses [1]; hydrobromide,47%
same,"Cough pulses during 8 minutes, percent of control value, after 5 h",cough pulses [1]; hydrobromide,59%
same,"Cough pulses during 8 minutes, percent of control value, after 24 h",cough pulses [1]; hydrobromide,113%
same,LD50,[5]; [8],686 mg/kg
same,LD50,[5]; [9],320 mg/kg
same,"toxicity, comparison in words",mice,about equal
same,"induced spontaneous activity, in words",[6],without at the same time inducing any spontaneous activity
"COc1cc2c(cc1OC)-c1c(OC)c(OC)cc3c1C(C2)N(C)CC3 (racemic) [d,l-glaucine hydrochloride]","Cough pulses during 8 minutes, percent of control value, after 1 h",cough pulses [1]; hydrochloride,80%
same,"Cough pulses during 8 minutes, percent of control value, after 3 h",cough pulses [1]; hydrochloride,72%
same,"Cough pulses during 8 minutes, percent of control value, after 5 h",cough pulses [1]; hydrochloride,69%
same,"Cough pulses during 8 minutes, percent of control value, after 24 h",cough pulses [1]; hydrochloride,102%
"COc1ccc2c3c1O[C@H]1[C@@H](O)C=C[C@H]4[C@@H](C2)N(C)CC[C@@]341 [codeine, reference compound]","contractive force of the muscle material, in words",[7]; molar concentrations between 1×10^-5 and 32×10^-5,produces contractions which depend on the dose
"COc1cc2c(cc1OC)-c1c(OC)c(OC)cc3c1[C@H](C2)N(C)CC3 [d-glaucine hydrobromide, reference compound]",ED50,cough pulses [2],54 mg/kg
same,Distance travelled average % (of intestine length),intestinal motility; 10 mg/kg,74.6%
same,Distance travelled average % (of intestine length),intestinal motility; 30 mg/kg,80.1%
same,Distance travelled average % (of intestine length),intestinal motility; 100 mg/kg,36.4%
same,"suppression of electrically induced contraction reflexes, in words",[3]; 4×10^-5,suppresses electrically induced contraction reflexes
same,electrically induced contractions (Table III),"[3]; molar concentration 1 × 10^-5, hydrobromide",77 and 95
same,electrically induced contractions (Table III),"[3]; molar concentration 2 × 10^-5, hydrobromide",74 and 79
same,electrically induced contractions (Table III),"[3]; molar concentration 4 × 10^-5, hydrobromide",44 and 36
same,minimal effective dose,coughing centre,1 mg/kg
same,Duration of cough suppression,coughing centre,5 to 39 min
same,LD50,[5]; [8],345 mg/kg
same,LD50,[5]; [9],125 mg/kg
same,"induced spontaneous activity, in words",[6],the increasing spontaneous activity prevents any distinguishing between direct production and electric production of the activity
"COc1cc2c(cc1OC)-c1c(OC)c(OC)cc3c1[C@H](C2)N(C)CC3 [d-glaucine, reference compound]","spontaneous activity and tone, in words",[7],dose-dependent increase of spontaneous activity and tone
COc1cc2c(cc1OC)-c1c(OC)c(OC)cc3c1[C@@H](C2)N(C)CC3 [l-glaucine],spasmogenic activity,"[7]; in vitro, isolated guinea pig intestine",no spasmogenic activity
same,"spontaneous activity and tone, in words",[7],a reduction in spontaneous activity and no increase in tone
